# Experimental data published in patent US12202816B2 (CALLIDITAS THERAPEUTICS SUISSE SA, priority 2018, dated 2025).
# Biological target: hNOX enzymes
# Assay: ROS production measurement on hNOX membranes (Amplex Red fluorescence assay, assay 1)
# Format: biochemical, human
# Conditions: membranes from CHO or HEK cells overexpressing hNox enzymes; Nox isoform not stated; non linear regression; read-out: Nox inhibitory constant Ki
# Description: Reactive oxygen species (ROS) production generated by hNOX enzymes was measured by fluorescence in both cellular and membrane-based assays using the Amplex® Red reagent. In the presence of horseradish peroxidase (HRP), the Amplex® Red reagent (10-acetyl-3,7-dihydroxyphenoxazine, AR), which is a colorless and nonfluorescent derivative of dihydroresorufin, reacts with H2O2 with a 1:1 stoichiometry to produce highly fluorescent resorufin at an excitation and emission wavelengths of 544 nm and 590 nm, respectively.
# Membranes from CHO or HEK cells overexpressing hNox enzymes were prepared as previously described (Palicz et al., 2001, J. Biol. Chem, 76, 3090). After resuspension in sonication buffer (11% sucrose, 120 mM NaCl, 1 mM EGTA in PBS, pH 7.4), cells were broken by sonication and centrifuged (200 g, 10 min). The supernatant was layered onto a 17/40% (w/v) discontinuous sucrose gradient and centrifuged (150,000 g for 30 min). Membrane fractions were collected from the 17/40% interface, aliquoted in 10 μl samples and were stored at −80° C. Protein concentration was determined with Bradford reagent. Flavin Adenine Dinucleotide (FAD) (catalog #F6625-500MG), MgCl2 (catalog #M8266-100G), Phosphatidic Acid (PA) (catalog #P3591-50MG) were purchased from Sigma-Aldrich. Horseradish peroxidase (HRP) (catalog #10108090001) was purchased from Roche. NADPH (catalog #A1395, 0500) was purchased from Applichem. Amplex red (AR) (catalog #A22177) was purchased from Invitrogen. 96 well polypropylene and black plates were purchased from Milian (catalog #055529 and #055218, respectively). FLUOstar OPTIMA microplate reader was supplied by BMG Labtech (Germany). Zephyr® Compact Liquid Handling Workstation was supplied by PerkinElmer (Germany).
# Assay 1: ROS Production Measurement on hNOX Membranes
# All Solutions were placed on ice and protected from light. The final concentration in the 1× hNOX membrane fluorescent assay buffer were PBS pH7, 6 μM FAD, 15 μM PA, 1 mM MgCl2, 12.5 μM AR, 0.02 u/ml, 125 ng membranes, 1.5 μg of cofactors and 30 μM NADPH. The NADPH was dissolved in water at a concentration of 12 mM and was transferred in a metal transfer plate kept at 4° C. The NADPH was added to the assay plate to initiate the reaction just before the measurement.
# Serial dilution (1:3, 10 serial dilution) of the compounds was performed in 100% DMSO in 96 well polypropylene plate—Row B—H Column 1-10, Row A, Column 1-10 contained reference compound. Starting concentration was 10^−2 M (10 mM). Final concentration in assay was 10^−4 M (100 μM). Compounds were diluted twice in PBS buffer by transferring 30 μl/well of PBS into 30 μl/well compounds sample in DMSO using Zephyr® Compact Liquid Handling Workstation. Control wells-columns 1 and 12-contained 60 μl DMSO in 50% PBS pH7.
# Reaction mixture is dispensed using Zephyr® Compact Liquid Handling Workstation. 90 μl of mix with membrane were dispensed into 96 well black plates—Column 2-11, Column 1 Row A-D, Column 12 Row E-H. 90 μl of control mix were dispensed into assay plate—Column 1 Row E-H, Column 12 Row A-D, which are wells for measuring background signal. 2 μl of compounds were dispensed into each well of assay plate using Zephyr® Compact Liquid Handling Workstation. The reaction mixture with compounds was incubated in assay plates for 20 min at 37° C. in a Titramax microplate incubator with gentle agitation. 10 μl of NADPH is dispensed to the assay plate. Fluorescence reading was recorded with the FLUOstar OPTIMA microplate reader for 10 min at 37° C. (8 cycles, 1 cycle duration 55 sec).
# The Table 14 below summarizes the inhibition of NOX activity as measured by the above described assay 1 and expressed by their inhibitory constant calculated by non linear regression analysis using GraphPad Prism Software (GraphPad Software Co., San Diego, CA): […]
row,Ki [nM],Structure (SMILES)
1,486,"COc1cc(-c2ccc3[nH]c(-c4ccnc(C)c4)cc3c2)ccn1 [Example 1, 5-(2-methoxypyridin-4-yl)-2-(2-methylpyridin-4-yl)-1H-indole]"
2,348,"Cc1cc(-c2cc3cc(-c4ccnc(N)c4)ccc3[nH]2)ccn1 [Example 5, 4-(2-(2-methylpyridin-4-yl)-1H-indol-5-yl)pyridin-2-amine]"
3,750,"Cc1cc(-c2cc3cc(-c4cncc(F)c4)ccc3[nH]2)ccn1 [Example 6, 5-(5-fluoropyridin-3-yl)-2-(2-methylpyridin-4-yl)-1H-indole]"
4,805,"Cc1cc(-c2cc3cc(-c4cncc(N(C)C)c4)ccc3[nH]2)ccn1 [Example 9, N,N-dimethyl-5-(2-(2-methylpyridin-4-yl)-1H-indol-5-yl)pyridin-3-amine]"
5,590,"Cc1cc(-c2cc3cc(-c4ccc5[nH]c(C)nc5c4)ccc3[nH]2)ccn1 [Example 12, 2-methyl-5-(2-(2-methylpyridin-4-yl)-1H-indol-5-yl)-1H-benzo[d]imidazole]"
6,315,"COc1cncc(-c2ccc3[nH]c(-c4ccnc(N5CCC5)c4)cc3c2)c1 [Example 13, 2-(2-(azetidin-1-yl)pyridin-4-yl)-5-(5-methoxypyridin-3-yl)-1H-indole]"
7,41,"COc1cncc(-c2ccc3[nH]c(-c4ccnc(OC)c4)cc3c2)c1 [Example 14, 5-(5-methoxypyridin-3-yl)-2-(2-methoxypyridin-4-yl)-1H-indole]"
8,666,"COc1cncc(-c2ccc3[nH]c(-c4ccnc(C)n4)cc3c2)c1 [Example 16, 5-(5-methoxypyridin-3-yl)-2-(2-methylpyrimidin-4-yl)-1H-indole]"
9,958,"COc1cncc(-c2ccc3[nH]c(-c4csc(C)n4)cc3c2)c1 [Example 18, 4-(5-(5-methoxypyridin-3-yl)-1H-indol-2-yl)-2-methylthiazole]"
10,231,"COc1cncc(-c2ccc3[nH]c(-c4ccnc(C5CC5)c4)cc3c2)c1 [Example 19, 2-(2-cyclopropylpyridin-4-yl)-5-(5-methoxypyridin-3-yl)-1H-indole]"
11,158,"COc1cncc(-c2ccc3[nH]c(-c4ccnc(N5CC(O)C5)c4)cc3c2)c1 [Example 20, 1-(4-(5-(5-methoxypyridin-3-yl)-1H-indol-2-yl)pyridin-2-yl)azetidin-3-ol]"
12,296,COc1cncc(-c2ccc3[nH]c(-c4ccnc(N5CCOCC5)c4)cc3c2)c1 [Example 23]
13,311,"COc1cncc(-c2ccc3[nH]c(-c4cncc(F)c4)cc3c2)c1 [Example 24, 2-(5-fluoropyridin-3-yl)-5-(5-methoxypyridin-3-yl)-1H-indole]"
14,221,Cc1cc(-c2ccc3[nH]c(-c4ccc(N5CCOCC5)nc4)cc3c2)ccn1 [Example 26]
15,147,"COc1cncc(-c2ccc3[nH]c(-c4ccc(C5COC5)nc4)cc3c2)c1 [Example 27, 5-(5-methoxypyridin-3-yl)-2-(6-(oxetan-3-yl)pyridin-3-yl)-1H-indole]"
16,206,"Cc1cc(-c2ccc3[nH]c(-c4ccc(N(C)C)nc4)cc3c2)ccn1 [Example 29, N,N-dimethyl-5-(5-(2-methylpyridin-4-yl)-1H-indol-2-yl)pyridin-2-amine]"
17,27,"COc1cncc(-c2cc3cc(-c4ccc(N5CCC56COC6)nc4)[nH]c3cc2Cl)c1 [Example 32, 1-(5-(6-chloro-5-(5-methoxypyridin-3-yl)-1H-indol-2-yl)pyridin-2-yl)-6-oxa-1-azaspiro[3.3]heptane]"
18,36,"COc1cncc(-c2cc3cc(-c4ccnc(N5CCC56COC6)c4)[nH]c3cc2Cl)c1 [Example 33, 1-(4-(6-chloro-5-(5-methoxypyridin-3-yl)-1H-indol-2-yl)pyridin-2-yl)-6-oxa-1-azaspiro[3.3]heptane]"
19,94,"Cc1cc(-c2cc3cc(-c4ccnc(N5CCC56COC6)c4)[nH]c3cc2Cl)ccn1 [Example 34, 1-(4-(6-chloro-5-(2-methylpyridin-4-yl)-1H-indol-2-yl)pyridin-2-yl)-6-oxa-1-azaspiro[3.3]heptane]"
20,345,"COc1cncc(-c2cc3cc(-c4ccc(N5CC(C(=O)O)C5)nc4)[nH]c3cc2Cl)c1 [Example 39, 1-(5-(6-chloro-5-(5-methoxypyridin-3-yl)-1H-indol-2-yl)pyridin-2-yl)azetidine-3-carboxylic acid]"

row,Ki [nM],Structure (SMILES)
1,105,"COc1cncc(-c2cc3cc(-c4ccc(N5CCS(=O)(=O)CC5)nc4)[nH]c3cc2Cl)c1 [Example 49, 4-(5-(6-chloro-5-(5-methoxypyridin-3-yl)-1H-indol-2-yl)pyridin-2-yl)thiomorpholine 1,1-dioxide]"
2,23,"COc1cncc(-c2cc3cc(-c4cnc5c(c4)OCCN5C)[nH]c3cc2Cl)c1 [Example 53, 7-(6-chloro-5-(5-methoxypyridin-3-yl)-1H-indol-2-yl)-4-methyl-3,4-dihydro-2H-pyrido[3,2-b][1,4]oxazine]"
3,415,"COc1cncc(-c2cc3cc(-c4ccc(C(O)C5COC5)nc4)[nH]c3cc2Cl)c1 (stereo not shown) [Example 54, (5-(6-chloro-5-(5-methoxypyridin-3-yl)-1H-indol-2-yl)pyridin-2-yl)(oxetan-3-yl)methanol]"
4,142,"COc1cncc(-c2cc3cc(-c4ccc(=O)n(C)c4)[nH]c3cc2Cl)c1 [Example 57, 5-(6-chloro-5-(5-methoxypyridin-3-yl)-1H-indol-2-yl)-1-methylpyridin-2(1H)-one]"
5,552,COc1cncc(-c2cc(Cl)c3[nH]c(-c4ccc(N5CCOCC5)nc4)cc3c2)c1 [Example 59]
6,136,Clc1cncc(-c2cc3cc(-c4ccc(N5CCOCC5)nc4)[nH]c3cc2Cl)c1 [Example 62]
7,122,COc1cncc(-c2ccc3[nH]c(-c4ccnc(C)c4)cc3c2Cl)c1 [Example 65]
8,406,COc1cncc(-c2cc3cc(-c4ccnc(C)c4)[nH]c3cc2C)c1 [Example 68]
9,601,Cc1c(-c2ccncc2)ccc2[nH]c(-c3ccncc3)cc12 [Example 69]
10,289,Cc1cc(-c2cc3cc(-c4cncc(OCC5CC5)c4)ccc3[nH]2)ccn1 [Example 81]
11,657,COc1cc(-c2ccc3[nH]c(-c4ccnc(C)c4)cc3c2)cnc1OCc1ccccc1 [Example 83]
12,103,Clc1cc2[nH]c(-c3ccc(N4CCOCC4)nc3)cc2cc1-c1cncc2sccc12 [Example 89]
13,205,Fc1ccc2nccc(-c3cc4cc(-c5ccc(N6CCOCC6)nc5)[nH]c4cc3Cl)c2c1 [Example 90]
14,770,COc1ccc2c(-c3cc4cc(-c5ccc(N6CCOCC6)nc5)[nH]c4cc3Cl)cccc2n1 [Example 92]
15,26,"CN(C)c1cc(-c2cc3cc(-c4ccnc5ccc(F)cc45)ccc3[nH]2)ccn1 [Example 93, 4-(5-(6-fluoroquinolin-4-yl)-1H-indol-2-yl)-N,N-dimethylpyridin-2-amine]"
16,300,c1ccc2c(-c3ccc4[nH]c(-c5ccncc5)cc4c3)ccnc2c1 [Example 101]
17,806,COc1cncc(-c2ccc3[nH]c(-c4ccncn4)cc3c2)c1 [Example 109]
18,533,"COc1cncc(-c2ccc3c(c2)cc(-c2ccnc(C)c2)n3C(C)C)c1 [Example 111, 1-isopropyl-5-(5-methoxypyridin-3-yl)-2-(2-methylpyridin-4-yl)-1H-indole]"
19,170,COc1cncc(-c2cc3cc(-c4ccc(N5CCOCC5)nc4)n(C)c3cc2Cl)c1 [Example 112]
20,969,"COCCn1c(-c2ccncc2)cc2cc(-c3ccncc3)ccc21 [Example 113, 1-(2-methoxyethyl)-2,5-di(pyridin-4-yl)-1H-indole]"
